Reference: PMC12081497, “Design, synthesis, and anti-breast cancer activity evaluation of novel 3-cyanopyridine derivatives as PIM-1 inhibitors” (Molecular Diversity, 2024)
“Also recorded” adds a separate entry of the source. Read-outs that look alike come from different tables or passages of the source.

What was measured:
MCF-7 cells [1] = assay: Flow cytometric cell cycle analysis; assay type: cell-based, human; details: for Cell cycle comment (phase of arrest): MCF-7, 24 h
Method: The cell cycle encompasses four distinct phases: G1 phase, S phase (synthesis), G2 phase, and M phase. During G1, cellular amplification and preparation for DNA replication take place. The S phase involves DNA replication and chromatid duplication. In the G2 phase, DNA repair and further growth occur. The M phase is characterized by nuclear division. The investigation of the impact of compound 7h on cell cycle progression and the induction of apoptosis in MCF-7 cells. […] Subsequently, the cells were stained with PI/Annexin V and analyzed using flow cytometry (BD FASCCalibur). Upon analyzing the results (Table 3, Fig. 6), it was evident that the percentage of cell accumulation in the S phase increased in MCF-7 cells treated with compound 7h after 24 h of incubation.
Cell cycle analysis MCF-7 cell was seeded into six-well plates at a density of 2 × 10^5 cell per well and incubated for 24 h. The cell was cultured in RPMI 1640 supplemented with fetal bovine serum (FBS, 10%) and incubated at 37 °C and 5% CO2. The medium was removed and replaced with medium (final DMSO concentration, 1% v/v) containing compound 7h (0.283 µM). After incubation for 24 h and 48 h, the cell layer was trypsinized and washed with cold phosphate buffered saline (PBS) and fixed with 70% ethanol. The fixed cells were rinsed with PBS and then stained with the DNA fluorochrome PI in a solution containing Triton X-100 as well as RNase, keep 15 min at 37 °C according to the instruction manual. Then the samples were analyzed with a FACS Caliber flow cytometer (Becton Dickinson & Co., Franklin Lakes, NJ). The number of cells analyzed for each sample was 10,000 [39].

MCF-7 cells [2] = assay: Apoptosis assay, Annexin V/PI flow cytometry; assay type: cell-based, human; details: MCF-7, 24 h
Method: Compound 7h was chosen to investigate its abilities in inducing cancer cell apoptosis. Cell cycle analysis of MCF-7 after treatment with compound 7h. To corroborate the ability of the compound to induce apoptosis, cells were stained with Annexin V/PI, incubated for 24 h, and analyzed.
The MCF-7 was treated with compound 7h for 24 h. After treatment, the cells were suspended in 0.5 mL of PBS, collected by centrifugation, and fixed in ice-cold 70% (v/ v) ethanol, centrifuged the ethanol-suspended cells for 5 min, suspended in 5 mL PBS and centrifuged for 5 min, re-suspended with 1 mL PI staining solution (0.1 mg/ml RNase) + PE Annexin V (component no. 51-65875X) and kept in dark at 37 °C for 10 min, finally analyzed by flow cytometry using FACS caliber (Becton Dickinson). The cell cycle distributions were calculated using Phoenix Flow Systems and Verity Software House.

[3] = test system: MCF-7 human cancer cell line; assay: In vitro anti-proliferative MTT assay; assay type: cell-based; details: MTT, MCF-7, 48 h treatment, read-out: Cytotoxicity IC50, SD (±), MCF7
Method: In the present study, all synthesized cyanopyridine hybrids were subjected to in vitro cytotoxicity testing using the MTT assay method against MCF-7 human cancer.
All cell lines were maintained in RPMI1640 medium containing 10% FBS at 37 °C in 5% CO2 humidified incubator. Cell proliferation assay was determined by the MTT (3-[4,5-dimethyl-2-thiazolyl]-2,5- diphenyl-2H-tetrazolium bromide) method. Briefly, cells were plated in triplicate wells (3–5 × 10^4 cells/well) of 96-well flat-bottomed plates and incubated overnight prior to drug exposure and then treated with different concentrations of the tested compounds for 48 h. After that, 20 μL of MTT reagent at a final concentration of 0.5 mg/mL was added to each well. Cells were then incubated for 2 h with MTT, after which 100 μL of DMSO solution was added to dissolve the formazan salt resulting from the reduction of MTT and the absorbance was read at 570 nm using an automatic plate reader. The IC50 values were calculated according to inhibition ratios from three independent experiments.

PIM-1 kinase = target: T1, PIM-1 kinase (Homo sapiens, UniProt P11309); assay: PIM-1 kinase inhibition assay (Promega PIM-1 kinase assay kit, ADP-Glo); assay type: biochemical; details: concentrations 10, 1, 0.1 and 0.01 µM, read-out: PIM1-Kinase IC50
T1 construct: purchased Promega V4032
T1 sequence (P11309 whole entry): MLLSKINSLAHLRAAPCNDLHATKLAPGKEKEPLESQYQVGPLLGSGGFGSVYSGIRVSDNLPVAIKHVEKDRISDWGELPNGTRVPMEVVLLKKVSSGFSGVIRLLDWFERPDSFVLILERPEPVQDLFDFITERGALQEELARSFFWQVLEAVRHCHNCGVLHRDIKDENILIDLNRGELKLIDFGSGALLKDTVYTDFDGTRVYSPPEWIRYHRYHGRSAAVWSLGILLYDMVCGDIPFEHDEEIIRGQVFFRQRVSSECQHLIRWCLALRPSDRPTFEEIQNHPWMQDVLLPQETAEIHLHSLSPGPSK

**Q.** Which “Cell cycle comment (phase of arrest)” value (MCF-7 cells [1]) does the source give for COc1cc(-c2cc(-c3cccnc3)[nH]c(=O)c2C#N)ccc1OCC(=O)Nc1ccccc1 [7h, 2-(4-(3-Cyano-2-oxo-6-(pyridin-3-yl)-1,2-dihydropyridin-4-yl)-2-methoxyphenoxy)-N-phenylacetamide] here?
**A.** arrested the tumor cells at the S phase; also recorded: cell cycle arrest at the S phase

**Q.** What about the “Cell cycle comment (phase of arrest)” value (MCF-7 cells [1]; listed as 7 h) of the same compound?
**A.** Cell growth arrest@ S

**Q.** What about the “DNA content %G2/M” value (MCF-7 cells [1]; MCF-7, IC50 concentration of 7h, 24 h, control 13.14) of the same compound?
**A.** 12.11%

**Q.** What about the “DNA content %S” value (MCF-7 cells [1]; MCF-7, IC50 concentration of 7h, 24 h, control 25.83) of the same compound?
**A.** 33.61%

**Q.** And the “DNA content %G0-G1” value (MCF-7 cells [1]; MCF-7, IC50 concentration of 7h, 24 h, control 61.03)?
**A.** 54.28%

**Q.** What about the melting point of the same compound?
**A.** 295 to 297 °C

**Q.** What about the “Apoptosis Late” value (MCF-7 cells [2]; control 0.27) of the same compound?
**A.** 22.81%

**Q.** And the “Apoptosis Early” value (MCF-7 cells [2]; control 0.41)?
**A.** 15.42%

**Q.** And the Necrosis (MCF-7 cells [2]; control 1.61)?
**A.** 3.95%

**Q.** And the “Apoptosis Total” value (MCF-7 cells [2]; control 2.29)?
**A.** 42.18%

**Q.** What about the IC50 ([3]; Homo sapiens, MCF7, 48 h) of the same compound?
**A.** 1890 nM

**Q.** What about the IC50 [3] of the same compound?
**A.** 1890 ± 80 nM

**Q.** What about the IC50 (PIM-1 kinase) of the same compound?
**A.** 281 ± 12 nM
